One assay relates to MOLM14 cells. In words: Proliferation (spheroid) assay, MOLM14. The format is cell-based. The note with it: Homo sapiens, MOLM-14, 192 h, 8 days; read-out: spheroid assay_MOLM14 IC50. The procedure: The anti-proliferative effect of menin/MLL protein/protein interaction inhibitor test compounds was assessed in human leukemia cell lines. The cell line MOLM14 harbors a MLL translocation and expresses the MLL fusion protein MLL-AF9, respectively, as well as the wildtype protein from the second allele. OCI-AML3 cells that carry the NPM1c gene mutation were also tested. […] KO-52 was used as a control cell line containing two MLL (KMT2A) wildtype alleles in order to exclude compounds that display general cytotoxic effects.
MOLM14 cells were cultured in RPMI-1640 (Sigma Aldrich) supplemented with 10% heat-inactivated fetal bovine serum (HyClone), 2 mM L-glutamine (Sigma Aldrich) and 50 μg/ml gentamycin (Gibco). KO-52 and OCI-AML3 cell lines were propagated in alpha-MEM (Sigma Aldrich) supplemented with 20% heat-inactivated fetal bovine serum (HyClone), 2 mM L-glutamine (Sigma Aldrich) and 50 μg/ml gentamycin (Gibco).
In order to assess the anti-proliferative effects, 200 MOLM14 cells, […] or 300 KO-52 cells were seeded in 200 μl media per well in 96-well round bottom, ultra-low attachment plates (Costar, catalogue number 7007). Cell seeding numbers were chosen based on growth curves to ensure linear growth throughout the experiment. Test compounds were added at different concentrations and the DMSO content was normalized to 0.3%. Cells were incubated for 8 days at 37° C. and 5% CO2. Spheroid like growth was measured in real-time by live-cell imaging (IncuCyteZOOM, Essenbio, 4× objective) acquiring images at day 8. Confluence (%) as a measure of spheroid size was determined using an integrated analysis tool.
In order to determine the effect of the test compounds over time, the confluence in each well as a measure of spheroid size, was calculated. Confluence of the highest dose of a reference compound was used as baseline for the LC (Low control) and the confluence of DMSO treated cells was used as 0% cytotoxicity (High Control, HC).
Absolute IC50 values were calculated as percent change in confluence as follows: • LC=Low Control: cells treated with e.g. 1 μM of the cytotoxic agent staurosporin, or e.g. cells treated with a high concentration of an alternative reference compound • HC═High Control: Mean confluence (%) (DMSO treated cells) • % Effect=100−(100*(Sample-LC)/(HC-LC))
GraphPad Prism (version 7.00) was used to calculate the ICso. Dose-response equation was used for the plot of % Effect vs Log10 compound concentration with a variable slope and fixing the maximum to 100% and the minimum to 0%.

The next assay relates to MEIS1 mRNA. The assay is described as follows: MEIS1 mRNA expression assay (Quantigene Singleplex) in MOLM14 cells. The format is cell-based. The note with it: Homo sapiens, MOLM-14, 48 h. Here is the method:
2b) MEIS1 mRNA Expression Assay
MEIS1 mRNA expression upon treatment of compound was examined by Quantigene Singleplex assay (Thermo Fisher Scientific). This technology allows for direct quantification of mRNA targets using probes hybridizing to defined target sequences of interest and the signal is detected using a Multimode plate reader Envision (PerkinElmer). The MOLM14 cell line was used for this experiment. Cells were plated in 96-well plates at 3,750 cells/well in the presence of increasing concentrations of compounds. After incubation of 48 hours with compounds, cells were lysed in lysis buffer and incubated for 45 minutes at 55° C. Cell lysates were mixed with human MEIS1 specific capture probe or human RPL28 (Ribosomal Protein L28) specific probe as a normalization control, as well as blocking probes. Cell lysates were then transferred to the custom assay hybridization plate (Thermo Fisher Scientific) and incubated for 18 to 22 hours at 55° C. Subsequently, plates were washed to remove unbound materials followed by sequential addition of preamplifiers, amplifiers, and label probe. Signals (=gene counts) were measured with a Multimode plate reader Envision. IC50s were calculated by dose-response modelling using appropriate software. For all non-housekeeper genes response equal counts corrected for background and relative expression. For each sample, each test gene signal (background subtracted) was divided by the normalization gene signal (RPL28: background subtracted). Fold changes were calculated by dividing the normalized values for the treated samples by the normalized values for the DMSO treated sample. Fold changes of each target gene were used for the calculation of IC50s.

Assay [1] concerns MOLM-13 tumors in NSG mice. The assay is described as follows: Efficacy (survival) in disseminated MOLM-13 (KMT2A-rearranged) IV model in NSG mice. The format is in vivo. The note with it: NSG mice with established MOLM-13 tumors, 4 weeks treatment; azacitidine 2 mg/kg ip QD × 7, venetoclax 100 mg/kg po QD × 28, Compound 51 2 mg/kg po QD × 28 (Table 6). Here is the method:
4) Efficacy of Menin-KMT2A Inhibitor in Combination with Venetoclax, and Optionally, Azacitidine, in MOLM-13 (KMT2A-Rearranged) IV Model in NSG Mice
Compound 51 was formulated in purified pyrogen-free deionized water, pH 4.0 and prepared to reach a total volume of 8 mL/kg. Doses were adjusted by individual body weight each day. Working stocks of Compound 51 were prepared once per week for each study and stored at 25° C.
Female NSG (NOD.Cg-Prkdc^scid Il2rg^tm1Wj1/SzJ) mice were used when they were approximately 6 to 8 weeks of age and weighed approximately 25 g. All animals could acclimate and recover from any shipping-related stress for a minimum of 7 days prior to experimental use. Autoclaved water and irradiated food were provided ad libitum, and the animals were maintained on a 12 hour light and dark cycle. Cages, bedding, and water bottles were autoclaved before use and changed weekly. The tissue culture and cell injection reagents are summarized below in Table 5.
Tumor Model and Cell Culture Method
Human AML MOLM-13 cells were cultured at 37° C., 5% CO2 in the indicated complete culture media (RPMI 1640+10% HI-FBS+2 mM L-glutamine+50 μg/ml Gentamycin). Cells were harvested while in logarithmic growth and resuspended in cold (4° C.) Roswell Park Memorial Institute (RPMI) 1640 in serum-free medium.
For the disseminated MOLM-13 model, each mouse received 1×10^5 cells via IV injection in a total volume of 0.2 mL using a 26-gauge needle.
Day 0 is the day of tumor cell implantation and study initiation.
Mice bearing IV MOLM-13 xenograft tumors were randomly assigned to treatment groups 5 days post-tumor cell engraftment.
Animals were monitored daily for clinical signs related to either compound toxicity or tumor burden (i.e., hind limb paralysis, lethargy, etc.).
For survival assessment, results were plotted as the percentage survival against days post tumor implant. Negative clinical signs and/or ≥20% body weight loss was used as a surrogate endpoint for death. Median survival was determined utilizing Kaplan-Meier survival analysis. The percent increased life span (ILS) was calculated as: ((median survival day of treated group−median survival day of control group)/median survival day of control group)×100. Animals failing to reach the surrogate endpoint due to adverse clinical signs or death unrelated to treatment were censored for the survival assessment. As defined by NCI criteria, ≅25% ILS is considered biologically significant. (Johnson J I et al. Br J Cancer. 2001. 84(10), 1424-1431).
Survival and body weight data were graphically represented utilizing Prism (Version 9). Statistical significance for body weights was evaluated as described above. Statistical significance was evaluated for Kaplan-Meier survival plots comparing therapeutic treatment group vs. appropriate vehicle-treated control using log-rank (Mantel-Cox) test in R software version 3.4.2. Differences between groups were considered significant when the p value was ≤0.05.
The disseminated MOLM-13 model described above was used to examine the efficacy of menin-KMT2A-inhibitor (formulated as described above) in combination with venetoclax (formulated in polyethylene glycol [PEG]-400/Phosal50/dimethyl sulfoxide [DMSO]), and optionally azacitidine (formulated in 0.9% saline). Treatment with compound(s) was initiated 5 days after cell injection. Compound 51 was given in the morning, and venetoclax or azacitidine was given in the afternoon, approximately 6-8 hr apart.

The target in a further assay is T1, Menin/MLL (Homo sapiens, UniProt O00255, T541A).
T1 construct: Menin (a.a 1-610-6×his tag, 2.3 mg/mL in 20 mM Hepes)
T1 sequence (O00255 with tags, fused parts or gaps T541A): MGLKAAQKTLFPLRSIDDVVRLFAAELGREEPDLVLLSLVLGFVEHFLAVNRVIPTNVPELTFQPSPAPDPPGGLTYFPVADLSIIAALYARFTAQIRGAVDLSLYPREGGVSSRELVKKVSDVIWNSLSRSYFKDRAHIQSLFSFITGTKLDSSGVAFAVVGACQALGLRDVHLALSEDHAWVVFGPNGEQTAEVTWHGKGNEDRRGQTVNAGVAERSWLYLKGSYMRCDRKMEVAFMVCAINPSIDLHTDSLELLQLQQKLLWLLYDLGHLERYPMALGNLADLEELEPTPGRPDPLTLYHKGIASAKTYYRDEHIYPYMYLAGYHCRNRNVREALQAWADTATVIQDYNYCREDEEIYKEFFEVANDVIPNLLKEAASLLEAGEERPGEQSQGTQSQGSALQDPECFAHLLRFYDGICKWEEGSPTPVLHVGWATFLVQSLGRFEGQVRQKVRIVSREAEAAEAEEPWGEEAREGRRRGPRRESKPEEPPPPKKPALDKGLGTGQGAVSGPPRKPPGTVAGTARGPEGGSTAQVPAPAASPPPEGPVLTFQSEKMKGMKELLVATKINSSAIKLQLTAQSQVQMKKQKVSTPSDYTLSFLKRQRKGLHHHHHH
The assay is described as follows: Menin/MLL homogenous time-resolved fluorescence (HTRF) assay. The format is binding. The note with it: 30 min incubation of test compound with terbium chelate-labeled menin. Here is the method: 1) Menin/MLL Homogenous Time-Resolved Fluorescence (HTRF) Assay
To an untreated, white 384-well microtiter plate was added 40 nL 200× test compound in DMSO and 4 μL 2× terbium chelate-labeled menin (vide infra for preparation) in assay buffer (40 mM Tris.HCl, pH 7.5, 50 mM NaCl, 1 mM DTT (dithiothreitol) and 0.05% Pluronic F-127). After incubation of test compound and terbium chelate-labeled menin for 30 min at ambient temperature, 4 μL 2×FITC-MBM1 peptide (FITC-β-alanine-[…]-NH2) (“FITC” means fluorescein isothiocyanate) in assay buffer was added, the microtiter plate centrifuged at 1000 rpm for 1 min and the assay mixtures incubated for 15 min at ambient temperature. The relative amount of menin-FITC-MBM1 complex present in an assay mixture is determined by measuring the homogenous time-resolved fluorescence (HTRF) of the terbium/FITC donor/acceptor fluorphore pair using an EnVision microplate reader (ex. 337 nm/terbium em. 490 nm/FITC em. 520 nm) at ambient temperature. The degree of fluorescence resonance energy transfer (the HTRF value) is expressed as the ratio of the fluorescence emission intensities of the FITC and terbium fluorophores (F^em 520 nm/F^em 490 nm). […]
Compound potencies were determined by first calculating % inhibition at each compound concentration according to equation 1: […]

Take `CNC(=O)N1CCC(CN2CC[C@H](Cc3cn(-c4ccc(F)cc4C(=O)N(C)C(C)C)c4cncc(C)c34)C2)CC1` (single isomer, unassigned) [Compound 101]: the IC50 was 41 nM in the assay on MOLM14 cells and 7 nM in the assay on MEIS1 mRNA.

As for `COCC(=O)N1CCC(C(C)N2CCC(Cc3cn(-c4ccc(F)cc4C(=O)N(C)C(C)C)c4cncc(C)c34)C2)CC1` (single isomer, unassigned) [Compound 117a], the figures for the concentration for half-maximal inhibition (IC50) in the assay with MOLM14 cells and with MEIS1 mRNA were 5 nM and 7 nM, respectively.

`Nc1ncn([C@@H]2O[C@H](CO)[C@@H](O)[C@H]2O)c(=O)n1` [Azacitidine, azacitidine, reference compound]: in assay [1], the “% ILS (increased life span)” value stood at 37%.

As for `CC(=O)N1CCC(N2CC[C@H](Cc3cn(-c4ccc(F)cc4C(=O)N(C)C(C)C)c4cncc(C)c34)C2)CC1` [Compound 156], the results for the IC50 in the assay with MOLM14 cells and in the assay on MEIS1 mRNA were 42 nM and 187 nM, respectively.

The compound `Cc1cncc2c1c(CC1CN(CC3CCNC(=O)C3)C1)cn2-c1ccc(F)cc1C(=O)N(C)C(C)C` (stereo not shown) [Compound 196] displayed a half-maximal inhibitory concentration (IC50) at Menin/MLL of 0.19 nM.

Compound `CC(=O)N1CC2CC(N3CC(Cc4cn(-c5ccc(F)cc5C(=O)N(C)C(C)C)c5cncc(C)c45)C3)CC2C1` (stereo not shown) [Compound 294a] yielded an IC50 against Menin/MLL of 0.237 nM.

Take `CC1(C)CCC(CN2CCN(c3ccc(C(=O)NS(=O)(=O)c4ccc(NCC5CCOCC5)c([N+](=O)[O-])c4)c(Oc4cnc5[nH]ccc5c4)c3)CC2)=C(c2ccc(Cl)cc2)C1` [Venetoclax, venetoclax, reference compound]: in assay [1], the “% ILS (increased life span)” value is given as 11%.

The values are drawn from patent US20260191838A1, “COMBINATIONS COMPRISING A MENIN-MLL INHIBITOR AND A BCL-2 INHIBITOR” (JANSSEN PHARMACEUTICA NV, priority 2022, published 2026).
